Test results taken from patent US8084649B2, “Herbicides” (Syngenta Crop Protection, inc., priority 2007, dated 2011).

system: Digitaria sanguinalis (DIGSA); test: Post-emergence herbicidal activity, glasshouse pot test; assay type: in vivo; conditions: Digitaria sanguinalis, rate 125 g/ha, evaluated after 14 or 15 days, read-out: Post-emergence activity, DIGSA (100=total damage to plant; 0=no damage to plant)
In short: (§1)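 Plants sown in sterilised standard soil, grown 10 days in glasshouse, then sprayed with aqueous dilution of active ingredient formulated in acetone plus Emulsogen EL/N-methylpyrrolidone/dipropylene glycol monomethyl ether/X-77 solution. Damage scored visually 14 or 15 days after spraying, 0 (none) to 100 (total).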

Q: How did the pest or weed control at 125 g/ha turn out when `CCCCCCCCCCCC(=O)OC1=C(c2c(CC)cc(C)cc2CC)C(=O)CC2(CCOCC2)C1` [Compound P44] was run?
A: 100%

Q: Which pest or weed control at 125 g/ha does the source give for `CCCS(=O)(=O)OC1=C(c2c(CC)cc(C)cc2CC)C(=O)CC2(CCOCC2)C1` [Compound P29] here?
A: 50%

same assay, conditions: Digitaria sanguinalis, rate 500 g/ha, evaluated after 14 or 15 days, read-out: Post-emergence activity, DIGSA (100=total damage to plant; 0=no damage to plant)

Q: How did the pest or weed control at 500 g/ha turn out when `Cc1cc(C)c(C2=C(O)CC3(CCSCC3)CC2=O)c(C)c1` [Compound T6] was run?
A: 90%

system: Setaria faberi (SETFA); test: as above; assay type: in vivo; conditions: Setaria faberi, rate 125 g/ha, evaluated after 14 or 15 days, read-out: Post-emergence activity, SETFA (100=total damage to plant; 0=no damage to plant)
In short: as §1

Q: `CCCCCCCCCCCC(=O)OC1=C(c2c(CC)cc(C)cc2CC)C(=O)CC2(CCOCC2)C1` [Compound P44] was tested. Which pest or weed control at 125 g/ha did it give?
A: 90%

Q: For `CCCS(=O)(=O)OC1=C(c2c(CC)cc(C)cc2CC)C(=O)CC2(CCOCC2)C1` [Compound P29], which pest or weed control at 125 g/ha is on record?
A: 30%

same assay, conditions: Setaria faberi, rate 500 g/ha, evaluated after 14 or 15 days, read-out: Post-emergence activity, SETFA (100=total damage to plant; 0=no damage to plant)

Q: For `Cc1cc(C)c(C2=C(O)CC3(CCSCC3)CC2=O)c(C)c1` [Compound T6], which pest or weed control at 500 g/ha is on record?
A: 80%

system: Avena fatua (AVEFA); test: as above; assay type: in vivo; conditions: Avena fatua, rate 125 g/ha, evaluated after 14 or 15 days, read-out: Post-emergence activity, AVEFA (100=total damage to plant; 0=no damage to plant)
In short: as §1

Q: For `CCCCCCCCCCCC(=O)OC1=C(c2c(CC)cc(C)cc2CC)C(=O)CC2(CCOCC2)C1` [Compound P44], which pest or weed control at 125 g/ha is on record?
A: 90%

Q: Which pest or weed control at 125 g/ha does the source give for `CCCS(=O)(=O)OC1=C(c2c(CC)cc(C)cc2CC)C(=O)CC2(CCOCC2)C1` [Compound P29] here?
A: 0%

same assay, conditions: Avena fatua, rate 500 g/ha, evaluated after 14 or 15 days, read-out: Post-emergence activity, AVEFA (100=total damage to plant; 0=no damage to plant)

Q: For `Cc1cc(C)c(C2=C(O)CC3(CCSCC3)CC2=O)c(C)c1` [Compound T6], which pest or weed control at 500 g/ha is on record?
A: 10%

system: Echinochloa crus-galli (ECHCG); test: as above; assay type: in vivo; conditions: Echinochloa crus-galli, rate 125 g/ha, evaluated after 14 or 15 days, read-out: Post-emergence activity, ECHCG (100=total damage to plant; 0=no damage to plant)
In short: as §1

Q: How did the pest or weed control at 125 g/ha turn out when `CCCCCCCCCCCC(=O)OC1=C(c2c(CC)cc(C)cc2CC)C(=O)CC2(CCOCC2)C1` [Compound P44] was run?
A: 90%

Q: `CCCS(=O)(=O)OC1=C(c2c(CC)cc(C)cc2CC)C(=O)CC2(CCOCC2)C1` [Compound P29] was tested. Which pest or weed control at 125 g/ha did it give?
A: 30%

same assay, conditions: Echinochloa crus-galli, rate 500 g/ha, evaluated after 14 or 15 days, read-out: Post-emergence activity, ECHCG (100=total damage to plant; 0=no damage to plant)

Q: `Cc1cc(C)c(C2=C(O)CC3(CCSCC3)CC2=O)c(C)c1` [Compound T6] was tested. Which pest or weed control at 500 g/ha did it give?
A: 80%

system: Alopecurus myosuroides (ALOMY); test: as above; assay type: in vivo; conditions: Alopecurus myosuroides, rate 125 g/ha, evaluated after 14 or 15 days, read-out: Post-emergence activity, ALOMY (100=total damage to plant; 0=no damage to plant)
In short: as §1

Q: How did the pest or weed control at 125 g/ha turn out when `CCCCCCCCCCCC(=O)OC1=C(c2c(CC)cc(C)cc2CC)C(=O)CC2(CCOCC2)C1` [Compound P44] was run?
A: 80%

Q: `CCCS(=O)(=O)OC1=C(c2c(CC)cc(C)cc2CC)C(=O)CC2(CCOCC2)C1` [Compound P29] was tested. Which pest or weed control at 125 g/ha did it give?
A: 30%

same assay, conditions: Alopecurus myosuroides, rate 500 g/ha, evaluated after 14 or 15 days, read-out: Post-emergence activity, ALOMY (100=total damage to plant; 0=no damage to plant)

Q: How did the pest or weed control at 500 g/ha turn out when `Cc1cc(C)c(C2=C(O)CC3(CCSCC3)CC2=O)c(C)c1` [Compound T6] was run?
A: 20%

system: Lolium perenne (LOLPE); test: as above; assay type: in vivo; conditions: Lolium perenne, rate 125 g/ha, evaluated after 14 or 15 days, read-out: Post-emergence activity, LOLPE (100=total damage to plant; 0=no damage to plant)
In short: as §1

Q: For `CCCCCCCCCCCC(=O)OC1=C(c2c(CC)cc(C)cc2CC)C(=O)CC2(CCOCC2)C1` [Compound P44], which pest or weed control at 125 g/ha is on record?
A: 90%

Q: `CCCS(=O)(=O)OC1=C(c2c(CC)cc(C)cc2CC)C(=O)CC2(CCOCC2)C1` [Compound P29] was tested. Which pest or weed control at 125 g/ha did it give?
A: 10%

same assay, conditions: Lolium perenne, rate 500 g/ha, evaluated after 14 or 15 days, read-out: Post-emergence activity, LOLPE (100=total damage to plant; 0=no damage to plant)

Q: How did the pest or weed control at 500 g/ha turn out when `Cc1cc(C)c(C2=C(O)CC3(CCSCC3)CC2=O)c(C)c1` [Compound T6] was run?
A: 10%

system: Digitaria sanguinalis (DIGSA); test: Pre-emergence herbicidal activity, glasshouse pot test; assay type: in vivo; conditions: Digitaria sanguinalis, 480 h, rate 500 g/ha, evaluated after 20 days, read-out: Pre-emergence activity, DIGSA (100=total damage to plant; 0=no damage to plant)
In short: (§2)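 Pre-emergence application: sprayed one day after seeding into pots of sterilised standard soil. After 20 days' growth in a greenhouse, percent damage was scored visually, 0 meaning unharmed and 100 total damage.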

Q: For `Cc1cc(C)c(C2=C(O)CC3(CCSCC3)CC2=O)c(C)c1` [Compound T6], which pest or weed control at 500 g/ha is on record?
A: 10%

Q: Which pest or weed control at 500 g/ha does the source give for `CCCCCCCCCCCC(=O)OC1=C(c2c(CC)cc(C)cc2CC)C(=O)CC2(CCOCC2)C1` [Compound P44] here?
A: 100%

Q: How did the pest or weed control at 500 g/ha turn out when `CCCS(=O)(=O)OC1=C(c2c(CC)cc(C)cc2CC)C(=O)CC2(CCOCC2)C1` [Compound P29] was run?
A: 80%

system: Setaria faberi (SETFA); test: as above; assay type: in vivo; conditions: Setaria faberi, 480 h, rate 500 g/ha, evaluated after 20 days, read-out: Pre-emergence activity, SETFA (100=total damage to plant; 0=no damage to plant)
In short: as §2

Q: With `Cc1cc(C)c(C2=C(O)CC3(CCSCC3)CC2=O)c(C)c1` [Compound T6] as the compound, how does the pest or weed control at 500 g/ha read?
A: 10%

Q: `CCCCCCCCCCCC(=O)OC1=C(c2c(CC)cc(C)cc2CC)C(=O)CC2(CCOCC2)C1` [Compound P44] was tested. Which pest or weed control at 500 g/ha did it give?
A: 100%

Q: How did the pest or weed control at 500 g/ha turn out when `CCCS(=O)(=O)OC1=C(c2c(CC)cc(C)cc2CC)C(=O)CC2(CCOCC2)C1` [Compound P29] was run?
A: 60%

system: Avena fatua (AVEFA); test: as above; assay type: in vivo; conditions: Avena fatua, 480 h, rate 500 g/ha, evaluated after 20 days, read-out: Pre-emergence activity, AVEFA (100=total damage to plant; 0=no damage to plant)
In short: as §2

Q: How did the pest or weed control at 500 g/ha turn out when `Cc1cc(C)c(C2=C(O)CC3(CCSCC3)CC2=O)c(C)c1` [Compound T6] was run?
A: 30%

Q: `CCCCCCCCCCCC(=O)OC1=C(c2c(CC)cc(C)cc2CC)C(=O)CC2(CCOCC2)C1` [Compound P44] was tested. Which pest or weed control at 500 g/ha did it give?
A: 100%

Q: For `CCCS(=O)(=O)OC1=C(c2c(CC)cc(C)cc2CC)C(=O)CC2(CCOCC2)C1` [Compound P29], which pest or weed control at 500 g/ha is on record?
A: 60%

system: Echinochloa crus-galli (ECHCG); test: as above; assay type: in vivo; conditions: Echinochloa crus-galli, 480 h, rate 500 g/ha, evaluated after 20 days, read-out: Pre-emergence activity, ECHCG (100=total damage to plant; 0=no damage to plant)
In short: as §2

Q: `Cc1cc(C)c(C2=C(O)CC3(CCSCC3)CC2=O)c(C)c1` [Compound T6] was tested. Which pest or weed control at 500 g/ha did it give?
A: 10%

Q: Which pest or weed control at 500 g/ha does the source give for `CCCCCCCCCCCC(=O)OC1=C(c2c(CC)cc(C)cc2CC)C(=O)CC2(CCOCC2)C1` [Compound P44] here?
A: 100%

Q: For `CCCS(=O)(=O)OC1=C(c2c(CC)cc(C)cc2CC)C(=O)CC2(CCOCC2)C1` [Compound P29], which pest or weed control at 500 g/ha is on record?
A: 10%

system: Alopecurus myosuroides (ALOMY); test: as above; assay type: in vivo; conditions: Alopecurus myosuroides, 480 h, rate 500 g/ha, evaluated after 20 days, read-out: Pre-emergence activity, ALOMY (100=total damage to plant; 0=no damage to plant)
In short: as §2

Q: With `Cc1cc(C)c(C2=C(O)CC3(CCSCC3)CC2=O)c(C)c1` [Compound T6] as the compound, how does the pest or weed control at 500 g/ha read?
A: 20%

Q: For `CCCCCCCCCCCC(=O)OC1=C(c2c(CC)cc(C)cc2CC)C(=O)CC2(CCOCC2)C1` [Compound P44], which pest or weed control at 500 g/ha is on record?
A: 100%

Q: How did the pest or weed control at 500 g/ha turn out when `CCCS(=O)(=O)OC1=C(c2c(CC)cc(C)cc2CC)C(=O)CC2(CCOCC2)C1` [Compound P29] was run?
A: 60%

system: Lolium perenne (LOLPE); test: as above; assay type: in vivo; conditions: Lolium perenne, 480 h, rate 500 g/ha, evaluated after 20 days, read-out: Pre-emergence activity, LOLPE (100=total damage to plant; 0=no damage to plant)
In short: as §2

Q: Which pest or weed control at 500 g/ha does the source give for `Cc1cc(C)c(C2=C(O)CC3(CCSCC3)CC2=O)c(C)c1` [Compound T6] here?
A: 0%

Q: Which pest or weed control at 500 g/ha does the source give for `CCCCCCCCCCCC(=O)OC1=C(c2c(CC)cc(C)cc2CC)C(=O)CC2(CCOCC2)C1` [Compound P44] here?
A: 100%

Q: How did the pest or weed control at 500 g/ha turn out when `CCCS(=O)(=O)OC1=C(c2c(CC)cc(C)cc2CC)C(=O)CC2(CCOCC2)C1` [Compound P29] was run?
A: 60%
